Our source for the EC50 and inhibition values is US10604512B2, “3-(1H-indol-2-yl)-1H-indazoles and therapeutic uses thereof” (Samumed, LLC, priority 2015, dated 2020).

The test system of one assay is IL-6. Put plainly: Inhibition of IL-6 in LPS-stimulated THP-1 human monocyte cells (HTRF). It is filed as cell-based. The conditions noted are these: for EC50: IL-6 inhibition, LPS-stimulated THP-1 cells, HTRF; for inhibition at 10 µM: THP-1, printed beside >10 μM EC50, top concentration 10 μM, meaning not given, read-out: percentage in parentheses after EC50 >10. In a few lines:
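THP-1 cells serum-reduced (1% FBS, 24 h), then 5000 cells/well preincubated 2 h with compound (10-point 1:3 series from 10 μM, 0.1% DMSO) before 500 ng/mL LPS for 22 h at 37 °C. Secreted IL-6 quantified by HTRF 665/620 ratio; DMSO-normalised duplicates fitted to four-parameter EC50; above 10 μM, % inhibition at 10 μM given.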

A further assay concerns SW480 colon cancer cells. Nature of the assay: Cell viability assay (CellTiter-Blue) in SW480 colon cancer cells. It is filed as cell-based. The following applies: Homo sapiens, 96 h, four days; for inhibition at 10 µM: given where EC50 >10 μM, read-out: percent inhibition at 10 μM; for EC50: CellTiter-Blue. In a few lines:
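SW480 cells (~2×10^3 per well) were exposed to compound for four days at 37 °C/5% CO2, using 8-point 1:3 dilutions from 10 μM to 0.0045 μM in duplicate. Viability was read by resazurin reduction (CellTiter-Blue, ~3 h, Ex 560/Em 590 nm). EC50 came from non-linear regression; above 10 μM, percent inhibition at 10 μM is given.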
(In general: Alamar Blue is a resazurin reagent that responds to reducing activity.)

In general, EC50 refers to the concentration giving half of the maximal effect. The low end stands for greater potency, the high end for weaker potency. Consider `O=C(Nc1cncc(-c2ccc3[nH]nc(-c4cc5c(-c6ccccn6)cccc5[nH]4)c3c2)c1)c1ccccc1` [Compound 151, N-(5-(3-(4-(Pyridin-2-yl)-1H-indol-2-yl)-1H-indazol-5-yl)pyridin-3-yl) benzamide], for which, in the assay with IL-6, the EC50 is over 10 µM and the inhibition at 10 µM is 46.9%. Also, in the assay on SW480 colon cancer cells, the inhibition at 10 µM was 17.7% and the EC50 was over 10 µM.

Take `c1ccc(-c2cccc3[nH]c(-c4n[nH]c5ccc(-c6ccncc6)cc45)cc23)nc1` [Compound 158, 3-(4-(Pyridin-2-yl)-1H-indol-2-yl)-5-(pyridin-4-yl)-1H-indazole]: the midpoint of the response in the assay with IL-6, the EC50, lay at 1.58 µM. Also, in the assay with SW480 colon cancer cells, the inhibition at 10 µM was 36.9% and the EC50 is over 10 µM.

Regarding `CCCCC(=O)Nc1cncc(-c2ccc3[nH]nc(-c4cc5c(-c6ccccn6)cccc5[nH]4)c3c2)c1` [Compound 159, N-(5-(3-(4-(Pyridin-2-yl)-1H-indol-2-yl)-1H-indazol-5-yl)pyridin-3-yl) pentanamide], in the assay with IL-6, the EC50 is over 10 µM and the inhibition at 10 µM came to 39.3%. In the assay on SW480 colon cancer cells, the inhibition at 10 µM amounted to 22.3% and the EC50 is over 10 µM.

The compound `CCC(=O)Nc1cncc(-c2ccc3[nH]nc(-c4cc5ccccc5[nH]4)c3c2)c1` [Compound 253, N-(5-(3-(1H-Indol-2-yl)-1H-indazol-5-yl)pyridin-3-yl)propionamide] displayed an EC50 with IL-6 of 0.233 µM. In addition, in the assay on SW480 colon cancer cells, the inhibition at 10 µM is 13.6% and the EC50 is over 10 µM.

As to `O=C(Cc1ccccc1)Nc1cncc(-c2ccc3[nH]nc(-c4cc5ccccc5[nH]4)c3c2)c1` [Compound 262, N-(5-(3-(1H-Indol-2-yl)-1H-indazol-5-yl)pyridin-3-yl)-2-phenylacetamide], in the assay with IL-6, the EC50 was over 10 µM and the inhibition at 10 µM came out at 0%. Also, in the assay with SW480 colon cancer cells, the inhibition at 10 µM worked out at 11.4% and the EC50 was over 10 µM.

As to `O=C(Nc1cncc(-c2ccc3[nH]nc(-c4cc5ccccc5[nH]4)c3c2)c1)c1ccccc1` [Compound 263, N-(5-(3-(1H-Indol-2-yl)-1H-indazol-5-yl)pyridin-3-yl)benzamide], the EC50 with IL-6 and in the assay with SW480 colon cancer cells was over 10 µM throughout. In addition, the inhibition at 10 µM with IL-6 came out at 0%; in the assay with SW480 colon cancer cells, 2.9%.

In the assay on IL-6, `c1ccc2[nH]c(-c3n[nH]c4ccc(-c5cncc(CN6CCCCC6)c5)cc34)cc2c1` [Compound 267, 3-(1H-Indol-2-yl)-5-(5-(piperidin-1-ylmethyl)pyridin-3-yl)-1H-indazole] gave an EC50 of 1.73 µM. In the assay on SW480 colon cancer cells, the inhibition at 10 µM amounted to 7.8% and the EC50 is over 10 µM.

As for `CC(C)(C)CC(=O)Nc1cncc(-c2ccc3[nH]nc(-c4cc5ccccc5[nH]4)c3c2)c1` [Compound 268, N-(5-(3-(1H-Indol-2-yl)-1H-indazol-5-yl)pyridin-3-yl)-3,3-dimethylbutanamide], the EC50 in the assay on IL-6 and in the assay on SW480 colon cancer cells was over 10 µM in each case. In addition, the inhibition at 10 µM with IL-6 came to 0%; in the assay on SW480 colon cancer cells, 12.4%.

As to `O=C(Nc1cncc(-c2ccc3[nH]nc(-c4cc5ccccc5[nH]4)c3c2)c1)C1CCC1` [Compound 273, N-(5-(3-(1H-Indol-2-yl)-1H-indazol-5-yl)pyridin-3-yl) cyclobutanecarboxamide], the EC50 with IL-6 and in the assay with SW480 colon cancer cells was over 10 µM in each case. Also, the results for the inhibition at 10 µM with IL-6 and with SW480 colon cancer cells were 44.3% and 17.8%, respectively.

`O=C(Nc1cncc(-c2ccc3[nH]nc(-c4cc5ccccc5[nH]4)c3c2)c1)C1CCCCC1` [Compound 275, N-(5-(3-(1H-Indol-2-yl)-1H-indazol-5-yl)pyridin-3-yl) cyclohexanecarboxamide]: the EC50 in the assay on IL-6 and with SW480 colon cancer cells was over 10 µM each time. Further, the inhibition at 10 µM is 32.5% with IL-6 and 9.5% in the assay with SW480 colon cancer cells.

For `CC(C)CC(=O)Nc1cncc(-c2ccc3[nH]nc(-c4cc5c(-c6ccsc6)cccc5[nH]4)c3c2)c1` [Compound 282, 3-Methyl-N-(5-(3-(4-(thiophen-3-yl)-1H-indol-2-yl)-1H-indazol-5-yl)pyridin-3-yl)butanamide], the EC50 came out at 0.977 µM in the assay with IL-6 and 0.18 µM in the assay with SW480 colon cancer cells.

As to `CC(C)C(=O)Nc1cncc(-c2ccc3[nH]nc(-c4cc5c(-c6ccsc6)cccc5[nH]4)c3c2)c1` [Compound 289, N-(5-(3-(4-(Thiophen-3-yl)-1H-indol-2-yl)-1H-indazol-5-yl)pyridin-3-yl) isobutyramide], the figures for the EC50 with IL-6 and in the assay with SW480 colon cancer cells were over 10 µM and 0.375 µM, respectively. Also, the inhibition at 10 µM in the assay with IL-6 was found to be 48.3%.

Consider `c1ccc(-c2ccc3[nH]nc(-c4cc5c(-c6ccoc6)cccc5[nH]4)c3c2)nc1` [Compound 336, 3-(4-(Furan-3-yl)-1H-indol-2-yl)-5-(pyridin-2-yl)-1H-indazole], for which the figures for the EC50 in the assay on IL-6 and with SW480 colon cancer cells were 0.09 µM and 3.1 µM, respectively.

With `c1cncc(-c2ccc3[nH]nc(-c4cc5c(-c6cccs6)cccc5[nH]4)c3c2)c1` [Compound 340, 5-(Pyridin-3-yl)-3-(4-(thiophen-2-yl)-1H-indol-2-yl)-1H-indazole], the results for the EC50 in the assay with IL-6 and in the assay with SW480 colon cancer cells were 0.018 µM and 0.371 µM, respectively.

On to `c1csc(-c2cccc3[nH]c(-c4n[nH]c5ccc(-c6ccncc6)cc45)cc23)c1` [Compound 354, 5-(pyridin-4-yl)-3-(4-(thiophen-2-yl)-1H-indol-2-yl)-1H-indazole], for which the EC50 worked out at 0.15 µM in the assay with IL-6 and 8.93 µM in the assay with SW480 colon cancer cells.

For the compound `CC(C)(C)C(=O)Nc1cncc(-c2ccc3[nH]nc(-c4cc5c(-c6cc(F)cc(CNS(C)(=O)=O)c6)cccc5[nH]4)c3c2)c1` [Compound 484, N-(5-(3-(4-(3-Fluoro-5-(methylsulfonamidomethyl)phenyl)-1H-indol-2-yl)-1H-indazol-5-yl)pyridin-3-yl)pivalamide], in the assay on IL-6, the EC50 is over 10 µM and the inhibition at 10 µM is 24.2%. Besides, in the assay with SW480 colon cancer cells, the inhibition at 10 µM was 37.5% and the 50% effective concentration (EC50) was over 10 µM.

In the assay on IL-6, `CS(=O)(=O)NCc1cc(F)cc(-c2cccc3[nH]c(-c4n[nH]c5ccc(-c6ccncc6)cc45)cc23)c1` [Compound 494, N-(3-Fluoro-5-(2-(5-(pyridin-4-yl)-1H-indazol-3-yl)-1H-indol-4-yl)benzyl) methane sulfonamide] displayed a half-maximal effective concentration (EC50) of 2.33 µM. For the same compound, in the assay on SW480 colon cancer cells, the inhibition at 10 µM was 22.3% and the EC50 was over 10 µM.

Consider `CC(C)CC(=O)Nc1cncc(-c2ccc3[nH]nc(-c4cc5ncccc5[nH]4)c3c2)c1` [Compound 506, N-(5-(3-(1H-Pyrrolo[3,2-b]pyridin-2-yl)-1H-indazol-5-yl)pyridin-3-yl)-3-methylbutanamide], for which the EC50 in the assay with IL-6 stood at 0.102 µM; in the assay with SW480 colon cancer cells it was 0.486 µM.

Turning to `O=C(Nc1cncc(-c2ccc3[nH]nc(-c4cc5ncccc5[nH]4)c3c2)c1)c1ccccc1` [Compound 515, N-(5-(3-(1H-Pyrrolo[3,2-b]pyridin-2-yl)-1H-indazol-5-yl)pyridin-3-yl) benzamide], the values for the EC50 with IL-6 and in the assay with SW480 colon cancer cells were 0.27 µM and 1.09 µM, respectively.

In the case of `c1cnc2cc(-c3n[nH]c4ccc(-c5cncc(CN6CCCCC6)c5)cc34)[nH]c2c1` [Compound 519, 5-(5-(Piperidin-1-ylmethyl)pyridin-3-yl)-3-(1H-pyrrolo[3,2-b]pyridin-2-yl)-1H-indazole], the results for the EC50 in the assay with IL-6 and with SW480 colon cancer cells were 0.097 µM and 0.106 µM, respectively.

In the case of `O=C(Nc1cncc(-c2ccc3[nH]nc(-c4cc5ncccc5[nH]4)c3c2)c1)C1CCC1` [Compound 525, N-(5-(3-(1H-Pyrrolo[3,2-b]pyridin-2-yl)-1H-indazol-5-yl)pyridin-3-yl) cyclobutanecarboxamide], the results for the EC50 in the assay with IL-6 and with SW480 colon cancer cells were 0.024 µM and 0.547 µM, respectively.

With `Fc1cccc(-c2cccc3[nH]c(-c4n[nH]c5ccc(C6CCNCC6)cc45)cc23)c1` [Compound 533, 3-(4-(3-Fluorophenyl)-1H-indol-2-yl)-5-(piperidin-4-yl)-1H-indazole], the EC50 in the assay with IL-6 is 2.8 µM; with SW480 colon cancer cells, 3.84 µM.

As for `Fc1ccc(-c2cccc3[nH]c(-c4n[nH]c5ccc(C6=CCNCC6)cc45)cc23)cc1` [Compound 550, 3-(4-(4-Fluorophenyl)-1H-indol-2-yl)-5-(1,2,3,6-tetrahydropyridin-4-yl)-1H-indazole], the concentration giving a half-maximal response (EC50) in the assay on IL-6 is over 10 µM; in the assay with SW480 colon cancer cells, 3.9 µM. Also, the inhibition at 10 µM in the assay with IL-6 was found to be 33.7%.

Consider `Cc1ncc(-c2ccc3[nH]nc(-c4cc5c(-c6ccncc6)cccc5[nH]4)c3c2)n1C` [Compound 601, 5-(1,2-Dimethyl-1H-imidazol-5-yl)-3-(4-(pyridin-4-yl)-1H-indol-2-yl)-1H-indazole], for which the EC50 in the assay with IL-6 was 4.17 µM; with SW480 colon cancer cells, 5.96 µM.

On to `c1cc(N2CCCCC2)c2cc(-c3n[nH]c4ccc(-c5cncc(OC6CCCCC6)c5)cc34)[nH]c2c1` [Compound 635, 5-(5-(Cyclohexyloxy)pyridin-3-yl)-3-(4-(piperidin-1-yl)-1H-indol-2-yl)-1H-indazole], for which, in the assay on IL-6, the EC50 is over 10 µM and the inhibition at 10 µM was 22.6%. In the assay on SW480 colon cancer cells, the inhibition at 10 µM worked out at 45.7% and the EC50 was over 10 µM.

Regarding `CN1CCN(c2cccc3[nH]c(-c4n[nH]c5ccc(-c6cncc(NC(=O)CC7CCNCC7)c6)cc45)cc23)CC1` [Compound 669, N-(5-(3-(4-(4-Methylpiperazin-1-yl)-1H-indol-2-yl)-1H-indazol-5-yl)pyridin-3-yl)-2-(piperidin-4-yl)acetamide], the concentration for a half-maximal effect (EC50) in the assay on IL-6 and in the assay with SW480 colon cancer cells was over 10 µM throughout. Moreover, the inhibition at 10 µM with IL-6 worked out at 25.3%; in the assay with SW480 colon cancer cells it was 12.2%.
